Assay [1] has as its system COX-2 gene expression. Description: COX-2 gene expression in LPS stimulated RAW 264.7 cells, real-time RT-PCR. In kind it is cell-based, mouse. Conditions: 10 μM, 2.5 hrs after LPS activation. Here is the method:
(§1) RAW 264.7 macrophages, a mouse cell line (ATCC # TIB 71), were grown in Dulbecco's modified Eagle's medium (DMEM) with 4 mM L-glutamine adjusted to contain 1.5 g/L sodium bicarbonate, 4.5 g/L glucose, and 10% heat inactivated fetal bovine serum. Cells were grown in tissue culture flasks and seeded at appropriate density into 24 wells tissue culture plates. 0.5×10^6 Raw cells in one milliliter were stimulated with 2 μg/ml Lipopolysaccharide E. coli 055:B5 (DIFCO Laboratories). The mouse macrophages were pre-treated for one hour with controls or 10 μM of dexanabinol and its analogs, unless indicated otherwise, and later on activated with LPS.
The results of this experiment are expressed as fold activation of COX-2 over non-activated macrophages, after normalization to cyclophilin A expression. When cells are treated with vehicle only we observe a maximal 6-fold increase in COX-2 expression. A decrease of 67% in RNA levels of COX-2 is observed when the activation is carried out in presence of 10 μM dexanabinol.
To test if COX-2 is the sole gene whose transcription is affected by compounds of the invention, additional genes were further analyzed by real-time RT-PCR in the above-described model of activated macrophages. This part of the study was performed with PRS-211,092 at doses up to 20 μM.

The subject of assay [2] is IL-1β secretion. In words: IL-1β secretion in LPS activated macrophages. In kind it is cell-based. Conditions: Mus musculus, Macrophage, read-out: IC50 for inhibition of IL-1β secretion. From the text:
(§2) The technique used to quantify the amount of a given protein in a liquid sample, either tissue culture supernatant or body fluid, is based on Enzyme Linked ImmunoSorbent Assay (ELISA) methodology. Either commercially available or established in house, the assay is based on the capture of the protein of interest by specific antibodies bound to the bottom of an ELISA plate well. Unbound material is washed away, the captured protein is then exposed to a secondary antibody generally labeled with horseradish peroxidase (HRP) or alkaline phosphatase (ALP). Again the unbound material is washed away, the samples are then incubated with the appropriate substrate yielding a colorimetric reaction. The reaction is stopped and reading is carried out in a spectrophotometer at the appropriate wavelength. Samples are tested at least in duplicate and the appropriate standard curve, consisting of serial dilutions of the recombinant target protein, is incorporated on each plate. Concentration of the protein in the sample is calculated from the standard curve.
(§3) RAW 264.7 macrophages, a mouse cell line (ATCC # TIB 71), were grown in Dulbecco's modified Eagle's medium (DMEM) with 4 mM L-glutamine adjusted to contain 1.5 g/L sodium bicarbonate, 4.5 g/L glucose, and 10% heat inactivated fetal bovine serum. […]

In assay [3] the test system is PGE2 secretion. Description: Inhibition of PGE2 secretion in LPS activated mouse macrophages (RAW 264.7). Conditions: RAW264.7, LPS activated RAW 264.7 cells. In kind it is cell-based. Here is the method:
The assay reproduces in vitro the true enzymatic activity, the test compounds, up to 10 μM, were preincubated for 5 minutes with purified COX-2, then the natural substrate AA was added and the reaction was allowed to proceed for 2 minutes. HCl was used to stop the enzyme catalysis and saturated stannous chloride was added to stabilize the PGH2 product into PGF2α.
as §1

Assay [4] deals with IL-1β gene expression. Description: IL-1β gene expression in MCAo mice brains. The settings on record: 5 mg/kg i.v., 18 hrs following MCAo.
Assay [5] relates to COX-2 gene expression. Description: COX-2 gene expression in MCAo mice brains. Conditions: 5 mg/kg i.v., 18 hrs following MCAo.
In assay [6] the test system is TNF-α secretion. In words: TNF-α secretion in LPS activated macrophages. The assay is classed as cell-based. The settings on record: Mus musculus, Macrophage, read-out: IC50 for inhibition of TNF-α secretion.
From the text: as §2, §3

In assay [7] the test system is MPTP model of neurodegeneration. In words: MPTP long-term model: rotarod functional outcome and mortality. In kind it is in vivo, mice. The method, then:
The mice (C57/BL male mice, average weight 30 g, Harlan, Israel) were administered i.p. with MPTP (Sigma, USA) (40 mg/kg, 5 ml/kg) in saline (Teva Medical, Israel) at 2 weeks interval for four times. The test compounds and controls were injected i.p. once just before the first MPTP administration at a volume dose of 5 ml/kg. Dexanabinol was tested at 20 mg/kg and PRS-211,220 was tested at 5 mg/kg. Each treatment group was composed of at least fourteen animals.
Seven days following each MPTP injection, the animals were submitted to a functional test using the rotarod apparatus as described by Rozas et al. (Rozas G. et al., J. of Neuroscience Methods 83: 165-75, 1998). The performance of the animals in the rotarod system, which measures overall locomotor ability, reflects their ability to achieve functions generally affected in PD. The animals were trained for 4 days before beginning the experiment. Their task was to stay on the accelerating rod without falling for 12 minutes (3 minutes at each speed). The tested speeds were: 15, 19, 23 and 27 rpm. Animal performance on the rod was scored as follows: each animal could obtain a maximum of 3 points (1 for each minute) for full walking on the rod at each speed. […]
Another parameter that was measured in this experiment is mortality, which was relatively high in this model.
A general note: Falling from the rotarod earlier than controls is read as motor impairment.

This note sets out measurements from patent US20050137251A1, “Dexanabinol and dexanabinol analogs regulate inflammation related genes” (priority 2002, published 2005).

The term IC50 denotes the concentration that gives 50% inhibition.

As to `CCCCCCC(C)(C)c1cc(O)c2c(c1)OC(C)(C)[C@H]1CC=C(CO)C[C@H]21` [dexanabinol, 1,1-dimethylheptyl-(3S,4S)-7-hydroxy-Δ^6-tetrahydrocannabinol], the “Decrease in RNA levels of COX-2” value in assay [1] was 67%. Also, the IC50 in assay [2] is 6 µM; in assay [3], 10 µM; in assay [6] it was 10 to 20 µM. Also, the “Modulation of IL-1β gene expression” value in assay [4] is “not modulated”. Besides, in assay [5], the “Reduction of COX-2 gene activation vs vehicle” value turned out to be 38%. For the same molecule, the “Rotarod functional outcome vs vehicle” value in assay [7] (20 mg/kg i.p., fourth session) is “positive trend”. In assay [7] (20 mg/kg, MPTP only 69%), this molecule gave a Mortality of 11%.
